Read-outs that look alike come from different tables or passages of the source.
What was measured:
[1] = target: Recombinant human PKC-theta (His-tagged 362-706) (Homo sapiens (Human), UniProt Q04759); assay: PKC-theta inhibition assay (HTRF KinEASE kit); type: biochemical; conditions: ATP 6.5 μM
Experimental: (§1) PKC-theta and PKC-delta biochemical activities were measured using the PKC-theta HTRF KinEASEkit kit, according to manufacturer's instructions (Cisbio, catalogue number 61ST1PEJ). Briefly, the kinase buffer component of the kit was supplemented with 10 mM MgCl2, 1 mM DTT and 0.1% Tween 20. For the PKC-theta assay, STK substrate and ATP were added to provide a final assay concentration of 525 nM and 6.5 μM, respectively. For the PKC-delta assay, STK substrate and ATP were added to provide a final assay concentration of 243 nM and 5.7 μM, respectively. The streptavidin_XL665 and STK antibody-cryptate detection reagents were mixed according to the manufacturer's instructions. Test compounds were diluted in DMSO in a series of 10 semi-log step doses; 10 nL of each compound dose were dispensed in 384 well plates. Recombinant human PKC-theta (His-tagged 362-706) or PKC-delta (His-tagged 345-676) was diluted into kinase buffer to provide a final assay concentration of 10 ng/ml and added to the test compound for 30 minutes on ice. The reaction was started by addition of the substrate and ATP and incubated at 25° C. for 30 minutes or 20 minutes for the PKC-theta and PKC-delta assays, respectively. The detection reagents were added, and the plate was incubated in the dark for 2 hours. Fluorescence was measured on an Envision 2103 plate reader with optical setup for […] in the HTRF mode. The ratio of acceptor and donor emission signals was calculated for each well. Percent inhibition values were calculated from the HTRF ratios at different doses and fitted to a 4-parameter logistic curve to determine IC50 values (see Table 1).

[2] = system: IL-2 secretion by human effector memory T cells (TEM); assay: Effector memory T cells IL-2 release assay; type: cell-based; conditions: T-cell, human CD4+ TEM cells, CD3/CD28 bead stimulation, 24 h
Experimental: Test compound-mediated inhibition of NFκB signalling in T cells was assessed by quantification of the IL-2 secretion by human effector memory T cells (TEM) upon treatment and stimulation. Human TEM cells were isolated from buffy coats of healthy donors obtained from the French blood bank. First, peripheral blood mononuclear cells (PBMC) were purified from buffy coats diluted 1:1 with DPBS (Gibco, cat #14190-094) by Pancoll (PAN BIOTECH, cat #P04-60500) density gradient centrifugation at 400×g for 20 minutes. TEM cells were further enriched by negative immuno-magnetic cell sorting using a human CD4+ Effector Memory T Cell Isolation Kit (Miltenyi, cat #130-094-125) according to the manufacturer's instructions. Aliquots of 3×10E6 purified TEM cells were kept frozen in Cryo-SFM medium (PromoCell, cat #C-29912) in gas phase nitrogen until used. Cell purity was verified by flow cytometry analysis of 200 000 PFA-fixed cells previously labelled with monoclonal antibodies anti-CD4-PerCP-Cy5.5 (BD Pharmigen, cat #332772), anti-CD8-V500 (BD Biosciences, cat #561617), anti-CD14-Pacific Blue (Biolegend, cat #325616), anti-CD45 RA-FITC (Biolegend, cat #304106) and anti-CCR7-APC (in CD4+ Effector Memory T Cell Isolation Kit, Miltenyi, cat #130-094-125).
TEM cells were resuspended in complete RPMI medium composed of: RPMI 1640 (Gibco, cat #31870-025), 10% heat inactivated fetal bovine serum (Sigma, cat #F7524), 2 mM GlutaMAX (Gibco, cat #35050-038), 1 mM sodium pyruvate 100× (Gibco, cat #11360-039), 1% MEM non-essential amino acids solution (Gibco, cat #11140-035) and 100 U/mL penicillin, 100 µg/mL streptomycin (Sigma-Aldrich, cat #11074440001). 5,000 cells per well were plated onto flat clear bottom 384 well plates (Corning, cat #3770). 5,000 Dynabeads Human T-Activator CD3/CD28 (Gibco, cat #11132D) were added to each well for cell stimulation. Finally, 10 doses of test compound, originally prepared in DMSO by serial semi-log step dilution, were also added to cells in triplicate wells. Final DMSO concentration in wells was 0.1% in a total volume of 100 µL complete medium. Plates were incubated for 24 h at 37° C. in 5% CO2 atmosphere. After incubation, cell suspensions were centrifuged at 400×g and culture supernatants were recovered and stored at −80° C. Cell viability was assessed by flow cytometry after staining the cells with Fixable Viability Dye eFluor 780 (Invitrogen, cat #65-0865-14). IL-2 levels were determined in cell supernatants using an HTRF human IL-2 detection kit (Cisbio, cat #62HIL02PEH). IL-2 data at the different compound doses were fitted to a 4-parameter logistic curve to determine IC50 values, corresponding to the compound concentration leading to 50% reduction of the maximal IL-2 levels observed in each experiment. Viability data were analysed similarly to exclude cytotoxicity as a cause of IL-2 decrease (see Table 1).

[3] = target: Recombinant human PKC-delta (His-tagged 345-676) (Homo sapiens (Human), UniProt Q05655); assay: PKC-delta inhibition assay (HTRF KinEASE kit), PKC-theta/PKC-delta selectivity; type: biochemical; conditions: ratio; for PKC-theta/PKC-delta selectivity: PKC-theta over PKC-delta, HTRF assays; for PKC-theta/PKC-delta selectivity (binned): binned A to G
Experimental: as §1

[4] = binned A to H, read-out: PKC-theta HTRF pIC50 (binned) (converted)
[5] = binned A to G, read-out: PKC-theta IL2 pIC50 (binned) (converted)
[6] = read-out: PKC-theta IL2 pIC50 (converted)
[7] = read-out: PKC-theta HTRF pIC50 (converted)

Recombinant human PKC-theta (His-tagged 362-706), sequence (Q04759 362-706): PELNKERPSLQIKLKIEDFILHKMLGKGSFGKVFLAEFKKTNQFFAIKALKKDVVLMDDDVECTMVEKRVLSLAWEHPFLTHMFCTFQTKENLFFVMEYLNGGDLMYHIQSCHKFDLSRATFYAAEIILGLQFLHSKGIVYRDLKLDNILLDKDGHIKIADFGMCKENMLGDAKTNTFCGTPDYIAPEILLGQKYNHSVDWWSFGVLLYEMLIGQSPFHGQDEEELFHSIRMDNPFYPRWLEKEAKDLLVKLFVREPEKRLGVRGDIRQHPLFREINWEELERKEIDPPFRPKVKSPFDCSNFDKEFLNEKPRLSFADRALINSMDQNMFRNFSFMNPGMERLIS
Recombinant human PKC-delta (His-tagged 345-676), sequence (Q05655 345-676): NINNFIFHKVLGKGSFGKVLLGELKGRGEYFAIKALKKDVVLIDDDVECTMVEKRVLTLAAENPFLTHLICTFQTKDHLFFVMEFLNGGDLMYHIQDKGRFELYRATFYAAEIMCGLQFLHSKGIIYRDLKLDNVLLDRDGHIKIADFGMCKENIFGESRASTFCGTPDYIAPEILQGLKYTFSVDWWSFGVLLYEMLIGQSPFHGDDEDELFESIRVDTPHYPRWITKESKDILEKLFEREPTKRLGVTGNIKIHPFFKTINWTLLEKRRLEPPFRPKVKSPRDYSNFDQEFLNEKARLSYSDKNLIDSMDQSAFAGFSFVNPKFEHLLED

Compound	PKC-theta HTRF pIC50 [1]	IC50 [1, 4] [nM]	IC50 [2, 5] [nM]	IC50 [2, 6] [nM]	PKC-theta/PKC-delta selectivity [3]	PKC-theta/PKC-delta selectivity (binned) [3]	IC50 [1, 7] [nM]
CC1(C)C(=O)Nc2nccc(-c3ccn(C4CCNCC4)c3)c21 [Example 6]	7.4	31.6 to 100	316 to 1000	631	3	F (F means a ratio of between 1 and 5)	–
CC1(O)C(=O)Nc2nccc(-c3cn(C4(CC#N)CCC4)c4ccccc34)c21 (stereo not shown) [Example 24]	8.4	3.16 to 10	31.6 to 100	63.1	9	E (E means a ratio of between 5 and 10)	–
CC1(C)C(=O)Nc2nccc(-c3nn(C4(CC#N)CNC4)c4ccccc34)c21 [Example 46]	8.2	3.16 to 10	100 to 316	158	3	F (F means a ratio of between 1 and 5)	–
C[C@@]1(O)C(=O)Nc2nccc(-c3nn(C4(CC#N)CCC4)c4ncccc34)c21 (single isomer, unassigned) [Example 60]	–	3.16 to 10	100 to 316	100	8	E (E means a ratio of between 5 and 10)	3.98
CC1(C)C(=O)Nc2nccc(-c3nn(C[C@@]4(C)COCCN4)c4cc(F)ccc34)c21 [Example 87]	9.0	≤ 1	31.6 to 100	50.1	38	B (B means a ratio of between 30 and 50)	–
CO[C@]1(C)C(=O)Nc2nccc(-c3nn(CC4(F)CCNCC4)c4ccccc34)c21 (single isomer, unassigned) [Example 75]	–	1 to 3.16	31.6 to 100	50.1	19	D (D means a ratio of between 10 and 20)	2
CC[C@@]1(C)C(=O)Nc2nccc(-c3nn([C@H]4CCNC[C@H]4F)c4ccc(F)cc34)c21 (single isomer, unassigned) [Example 99]	–	31.6 to 100	316 to 1000	398	105	A (A means a ratio of between 50 and 120)	100
CC1(C)C(=O)Nc2nccc(-c3nn([C@@H]4CCNC4)c4ccccc34)c21 [Example 15]	8.6	1 to 3.16	31.6 to 100	39.8	14	D (D means a ratio of between 10 and 20)	–
CC1(C)C(=O)Nc2nccc(-c3nn(CC4CCNCC4)c4ccccc34)c21 [Example 30]	8.9	1 to 3.16	31.6 to 100	50.1	14	D (D means a ratio of between 10 and 20)	–
CC1(O)C(=O)Nc2nccc(-c3ccn(C4CCNCC4)n3)c21 (stereo not shown) [Example 13]	7.4	31.6 to 100	316 to 1000	631	4	F (F means a ratio of between 1 and 5)	–
CCC1(O)C(=O)Nc2nccc(-c3nn(C4(CC#N)CCC4)c4ccccc34)c21 (stereo not shown) [Example 51]	9.3	≤ 1	10 to 31.6	15.8	11	D (D means a ratio of between 10 and 20)	–
CC1(O)C(=O)Nc2nccc(-c3cn([C@@H]4CCNC4)c4ccccc34)c21 (stereo partly shown) [Example 17]	–	–	–	–	7	E (E means a ratio of between 5 and 10)	–
C[C@@]1(O)C(=O)Nc2nccc(-c3nn(C4CCNCC4)c4cc(C(F)(F)F)ccc34)c21 (single isomer, unassigned) [Example 42]	–	10 to 31.6	316 to 1000	398	–	–	25.1

More lines, now with the values ahead:

PKC-theta HTRF pIC50 [1]	IC50 [1, 4] [nM]	IC50 [2, 5] [nM]	IC50 [2, 6] [nM]	PKC-theta/PKC-delta selectivity [3]	PKC-theta/PKC-delta selectivity (binned) [3]	IC50 [1, 7] [nM]	Compound
8.5	1 to 3.16	31.6 to 100	63.1	22	C (C means a ratio of between 20 and 30)	–	CC1(C)C(=O)Nc2nccc(-c3nn(C4CCNCC4)c4cc(F)ccc34)c21 [Example 112]
7.5	10 to 31.6	316 to 1000	631	10	D (D means a ratio of between 10 and 20)	–	CC1(C)C(=O)Nc2nccc(-c3nn([C@H]4CCNC4)c4ccc(F)cc34)c21 [Example 73]
–	≤ 1	10 to 31.6	15.8	11	D (D means a ratio of between 10 and 20)	1	CO[C@]1(C)C(=O)Nc2nccc(-c3nn([C@@H]4CCNC[C@@H]4F)c4ccccc34)c21 (single isomer, unassigned) [Example 90]
–	1 to 3.16	31.6 to 100	100	22	C (C means a ratio of between 20 and 30)	3.16	CO[C@]1(C)C(=O)Nc2nccc(-c3nn(CC4(F)CCNCC4)c4cc(F)ccc34)c21 (single isomer, unassigned) [Example 76]
8.7	1 to 3.16	31.6 to 100	50.1	15	D (D means a ratio of between 10 and 20)	–	CCC1(O)C(=O)Nc2nccc(-c3nn([C@@H]4CCNC[C@@H]4F)c4ccccc34)c21 (stereo partly shown) [Example 56]
–	3.16 to 10	31.6 to 100	100	21	C (C means a ratio of between 20 and 30)	3.98	CC[C@@]1(C)C(=O)Nc2nccc(-c3nn([C@H]4CCNC4)c4ccccc34)c21 (single isomer, unassigned) [Example 66]
–	3.16 to 10	–	–	46	B (B means a ratio of between 30 and 50)	6.31	CC[C@]1(C)C(=O)Nc2nccc(-c3nn([C@H]4CCNC[C@H]4F)c4cc(F)ccc34)c21 (single isomer, unassigned) [Example 102]

Reference: patent US20240239794A1, “PKC-Theta Modulators” (Exscientia AI Limited, priority 2021, published 2024)
